Several values for one entry are separate records, joined by “and”; a condition that tells them apart may be missing. Equal entries are not always repeated.
biological target: not listed separately; experiment: Inhibition of squalene-hopene cyclase

| SMILES | pIC50 |
| --- | --- |
| C=CCN(C)CCCCCCOc1ccc2c(c1)c(C)nn2C | 6.54 and 6.48 |
| CN(CCCCCCOC1CCN(C(=O)c2ccc(F)cc2)CC1)C1CC1 | 6.12 |
| C=CCN(C)C/C=C/COc1ccc(C(=O)c2ccc(Br)cc2)cc1 | 7.4 |
| CN(CCCO)CCCCCCOc1ccc(C(=O)c2ccc(Br)cc2)cc1 | 6.55 |
| C=CCN(C)C/C=C/COc1ccc2c(-c3ccc(Br)cc3)csc2c1 | 7.12 |
| C=CCN(C)CCCCCCOC1CCN(C(=O)c2ccc(F)cc2)CC1 | 5.92 |
| C=CCN(C)C/C=C/COc1ccc2c(-c3ccc(Br)cc3)noc2c1 | 7.31 |
| CN(C[C@H]1C[C@@H]1COc1ccc(C(=O)c2ccc(Br)cc2)c(F)c1)C1CC1 | 7.3 |
| CN(CCCCCCOc1ccc(C(=O)c2ccc(Br)cc2)c(F)c1)C1CC1 | 7.42 |
| C=CCN(C)C/C=C/COc1ccc(-c2nsc3cc(Br)ccc23)cc1 | 6.89 |
| C=CCN(C)CCCCCCOc1ccc2c(c1)CON=C2c1ccc(Br)cc1 | 6.76 |
| C=CCN(C)CCCCCCOc1ccc(C(=O)c2ccc(Br)cc2)cc1 | 7.02 |
| C=CCN(C)CCCCCCOc1ccc2c(-c3ccc(Br)cc3)noc2c1 | 7.12 |
| CN(C[C@H]1C[C@@H]1COc1ccc(C(=O)c2ccc(Br)cc2)cc1)C1CC1 | 7.21 |

biological target: T1, Lanosterol synthase (Homo sapiens, UniProt P48449); experiment: Inhibition of oxidosqualene cyclase
T1 sequence (P48449 whole entry): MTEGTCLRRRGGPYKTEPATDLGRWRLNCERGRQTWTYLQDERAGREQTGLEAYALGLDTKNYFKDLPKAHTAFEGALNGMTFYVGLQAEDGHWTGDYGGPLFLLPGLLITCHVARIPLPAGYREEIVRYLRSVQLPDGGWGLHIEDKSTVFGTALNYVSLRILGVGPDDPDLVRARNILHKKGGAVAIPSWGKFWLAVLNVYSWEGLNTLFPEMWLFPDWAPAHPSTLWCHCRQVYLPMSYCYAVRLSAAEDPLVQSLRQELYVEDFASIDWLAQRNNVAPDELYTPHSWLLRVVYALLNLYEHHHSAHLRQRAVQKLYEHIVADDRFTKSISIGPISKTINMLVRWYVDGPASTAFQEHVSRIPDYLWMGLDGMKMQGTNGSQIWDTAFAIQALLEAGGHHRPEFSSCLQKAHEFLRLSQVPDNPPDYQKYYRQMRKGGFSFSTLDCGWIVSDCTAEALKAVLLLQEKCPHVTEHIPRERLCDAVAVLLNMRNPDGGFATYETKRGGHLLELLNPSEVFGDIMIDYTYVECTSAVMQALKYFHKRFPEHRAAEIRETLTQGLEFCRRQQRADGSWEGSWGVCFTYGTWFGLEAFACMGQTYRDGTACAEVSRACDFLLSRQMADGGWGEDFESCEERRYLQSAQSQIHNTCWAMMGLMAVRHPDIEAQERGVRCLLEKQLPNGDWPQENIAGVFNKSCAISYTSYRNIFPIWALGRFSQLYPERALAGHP

| SMILES | IC50 [nM] |
| --- | --- |
| C=CCN(C)CCCCCCOc1ccc2c(c1)c(C)nn2C | 19.5 |
| CN(CCCO)CCCCCCOc1ccc(C(=O)c2ccc(Br)cc2)cc1 | 28.8 |
| C=CCN(C[C@H]1C[C@@H]1COc1ccc(C(=O)c2ccc(Br)cc2)cc1)C1CC1 | 6.46 |
